# Experimental data reported in patent US20260258330A1, “USE OF AT LEAST ONE […] A BEVERAGE, IN […] ALCOHOLIC BEVERAGE, AS A […] […]” (priority 2023, published 2026).
# Read-outs that look alike come from different tables or passages of the source.
# Assays:
# Saccharomyces cerevisiae [1] = format: cell-based
# Procedure: For this example, 10 mL of apple juice, grape juice or multifruit juice was inoculated with a strain of Saccharomyces cerevisiae at 60,000 cells per mL, that is a deposit of 17 μL of inoculum per 10 ml tube for Ci at T0=[…].
# These inoculated juices were incubated statically at 20° C., under subdued light, after having been pre-treated as follows: • 1. Untreated (Negative control) • 2. […] Ethanol 2.37% • 4. Ethanol 4.74% • 5. 100 ppm Chitosan • 6. 9 ppm Amphidinol 18 (AM18) • 7. 18 ppm Amphidinol 18 (AM18) • 8. 36 ppm Amphidinol 18 (AM18)
# The amphidinol concentration is obtained using the product according to the invention obtained from Example 1. The amount of product according to the invention is adjusted to obtain the desired amphidinol concentrations.
# The biomass of Saccharomyces populations was measured by optical density reading at 600 nm.
# [2] = test system: Brettanomyces bruxellensis NL6300; assay: Minimum inhibitory concentration of peak 0 purified fraction, OD550 (Example 6); format: cell-based; conditions: all concentrations (40 to 5 ppm) except the 5 ppm concentration of AM18
# Procedure: The minimum inhibitory concentration of peak 0 (purified fraction) was determined for two strains of Brettanomyces bruxellensis (NL6293 and NL6300) according to the protocol described in Example 2 and FIG. 1B.
# OD550 nm at T=0 days, T=3 days and T=6 days was measured after incubation of yeasts at 28° C. in the presence of YPD medium alone (negative control), methanol or in the presence of peak 0 at dilutions ranging from 1:32 to 1:256 corresponding to concentrations of 40 to 5 ppm of amphidinol 18. The product according to the invention at 0.25 g/L was also tested (positive control). Two replicas were produced.
# [3] = Degradation kinetics of amphidinol 18 in wine, HPLC (Example 10); format: physicochemical; conditions: product doses containing 60 ppm to 480 ppm amphidinol 18; up to day 44
# Procedure: Different doses of the product according to the invention, containing from 60 ppm to 480 ppm of amphidinol 18, were inoculated in the wine. The amount of amphidinol 18 was determined by HPLC assay over time, up to day 44 (T44). The percentage of amphidinol 18 with respect to the initial dose was assessed over time.
# [4] = Degradability of amphidinol 18 in light at room temperature, HPLC (Example 4); format: physicochemical; conditions: product at one gram per liter in 70% ethanol
# Text: Regularly, the concentration of amphidinol 18 in the product according to the invention has been measured by high-performance liquid chromatography.
# Saccharomyces cerevisiae [5] = assay: Minimum inhibitory concentration of peak 0 purified fraction, OD550 (Example 7); format: cell-based; conditions: 40 and 20 ppm of AM18 (tested 40 to 5 ppm); 2.5·10^4 CFU/mL
# Procedure: The minimum inhibitory concentration (MIC) of peak 0 described in FIG. 5D was determined for Saccharomyces cerevisiae according to the protocol described in Example 2 and FIG. 1B.
# (§1) OD550 nm at 0, 3 and 6 days (T0, T3 and T6) was measured after incubation at 28° C. of yeasts at 2.5·10^4 CFU/mL in the presence of YPD medium alone (negative control), methanol (MEtOH) or in the presence of peak 0 at a dilution of 1:32 to 1:256 corresponding to concentrations of 40 to 5 ppm of amphidinol 18. The product according to the invention at 0.25 g/L was also tested under the same conditions. Two replicas (rep1 and rep2) were produced.
# [6] = test system: three strains of Brettanomyces bruxellensis; assay: Growth of three Brettanomyces bruxellensis strains with product or inactivated product, optical density at 550 nm (Example 4); format: cell-based; conditions: conclusion from degradation and growth tests of Example 4
# Procedure: Two replicas were made for each condition.
# Yeast growth is measured by reading the optical density at 550 nanometers.
# Acetobacter aceti = assay: Minimum inhibitory concentration of peak 0 purified fraction, OD550 (Example 8); format: cell-based; conditions: 40, 20 and 10 pp: of AM18 (tested 40 to 5 ppm); MRS medium, 10^5 CFU/mL
# Procedure: The minimum inhibitory concentration (MIC) of peak 0 described in FIG. 5D was determined for Acetobacter aceti according to the protocol described in Example 2 and FIG. 1B.
# as §1, with “10^5” for “2.5·10^4”, “MRS” for “YPD”, “carried out.” for “produced.”
compound,measurement,setting,value
"CCO [Ethanol, reference compound]",yeast population growth,Saccharomyces cerevisiae [1],no yeast population growth
C=C/C=C/CC/C=C/C=C/C=C/CC/C=C/[C@H](O)[C@H](O)[C@@H]1O[C@@H]([C@H](O)[C@H](O)C(=C)CC[C@@H](O)[C@H]2C[C@@H](O)[C@@H](O)[C@H]([C@@H](O)[C@H](O)/C=C(\C)CCC(O)CC(O)C(O)C(C)CC(O)C(O)CC(C)CCC(O)CC(=O)CC(O)CCCC(O)CCCCC(O)CO)O2)C[C@@H](O)[C@H]1O (stereo partly drawn) [amphidinol 18],effectiveness against strain NL6300,[2],effective
same,degradation of amphidinol 18 in wine,[3],degrades steadily
same,amphidinol 18 concentration of the product,[4]; T=0 days,24 mg/L
same,amphidinol 18 concentration of the product,[4]; T=120 days,~0 mg/L
same,effectiveness against Saccharomyces cerevisiae,Saccharomyces cerevisiae [5],effective
same,effectiveness for controlling and/or limiting the growth of Brettanomyces bruxellensis,[6],particularly effective
same,effectiveness against Acetobacter aceti,Acetobacter aceti,effective
same,growth of Saccharomyces populations,Saccharomyces cerevisiae [1]; 3 types of fruit juice,completely preventing the growth
same,"Average D0, optical density at 600 nm","Saccharomyces cerevisiae [1]; Apple juice, 9 ppm AM18",−0.1305
same,"Average D1, optical density at 600 nm","Saccharomyces cerevisiae [1]; Apple juice, 9 ppm AM18",−0.1655
same,"Average D2, optical density at 600 nm","Saccharomyces cerevisiae [1]; Apple juice, 9 ppm AM18",0.1385
same,"Average D3, optical density at 600 nm","Saccharomyces cerevisiae [1]; Apple juice, 9 ppm AM18",0.6495
same,"Average D0, optical density at 600 nm","Saccharomyces cerevisiae [1]; Apple juice, 18 ppm AM18",0.0835
same,"Average D1, optical density at 600 nm","Saccharomyces cerevisiae [1]; Apple juice, 18 ppm AM18",0.0055
same,"Average D2, optical density at 600 nm","Saccharomyces cerevisiae [1]; Apple juice, 18 ppm AM18",−0.0505
same,"Average D3, optical density at 600 nm","Saccharomyces cerevisiae [1]; Apple juice, 18 ppm AM18",−0.091
same,"Average D0, optical density at 600 nm","Saccharomyces cerevisiae [1]; Apple juice, 36 ppm AM18",−0.012
same,"Average D1, optical density at 600 nm","Saccharomyces cerevisiae [1]; Apple juice, 36 ppm AM18",−0.007
same,"Average D2, optical density at 600 nm","Saccharomyces cerevisiae [1]; Apple juice, 36 ppm AM18",−0.062
same,"Average D3, optical density at 600 nm","Saccharomyces cerevisiae [1]; Apple juice, 36 ppm AM18",0.3515
same,"Average D0, optical density at 600 nm","Saccharomyces cerevisiae [1]; Grape juice, 9 ppm AM18",0.0755
same,"Average D1, optical density at 600 nm","Saccharomyces cerevisiae [1]; Grape juice, 9 ppm AM18",0.0375
same,"Average D2, optical density at 600 nm","Saccharomyces cerevisiae [1]; Grape juice, 9 ppm AM18",0.0315
same,"Average D3, optical density at 600 nm","Saccharomyces cerevisiae [1]; Grape juice, 9 ppm AM18",−0.084
same,"Average D0, optical density at 600 nm","Saccharomyces cerevisiae [1]; Grape juice, 18 ppm AM18",0.2065
same,"Average D1, optical density at 600 nm","Saccharomyces cerevisiae [1]; Grape juice, 18 ppm AM18",0.175
same,"Average D2, optical density at 600 nm","Saccharomyces cerevisiae [1]; Grape juice, 18 ppm AM18",0.154
same,"Average D3, optical density at 600 nm","Saccharomyces cerevisiae [1]; Grape juice, 18 ppm AM18",0.0515
same,"Average D0, optical density at 600 nm","Saccharomyces cerevisiae [1]; Grape juice, 36 ppm AM18",−0.1485
same,"Average D1, optical density at 600 nm","Saccharomyces cerevisiae [1]; Grape juice, 36 ppm AM18",−0.174
same,"Average D2, optical density at 600 nm","Saccharomyces cerevisiae [1]; Grape juice, 36 ppm AM18",−0.2285
same,"Average D3, optical density at 600 nm","Saccharomyces cerevisiae [1]; Grape juice, 36 ppm AM18",−0.2465
same,"Average D0, optical density at 600 nm","Saccharomyces cerevisiae [1]; Multifruit juice, 9 ppm AM18",−0.006
same,"Average D1, optical density at 600 nm","Saccharomyces cerevisiae [1]; Multifruit juice, 9 ppm AM18",−0.028
same,"Average D2, optical density at 600 nm","Saccharomyces cerevisiae [1]; Multifruit juice, 9 ppm AM18",−0.0705
same,"Average D3, optical density at 600 nm","Saccharomyces cerevisiae [1]; Multifruit juice, 9 ppm AM18",0.0995
same,"Average D0, optical density at 600 nm","Saccharomyces cerevisiae [1]; Multifruit juice, 18 ppm AM18",0.002
same,"Average D1, optical density at 600 nm","Saccharomyces cerevisiae [1]; Multifruit juice, 18 ppm AM18",−0.0365
same,"Average D2, optical density at 600 nm","Saccharomyces cerevisiae [1]; Multifruit juice, 18 ppm AM18",−0.0155
same,"Average D3, optical density at 600 nm","Saccharomyces cerevisiae [1]; Multifruit juice, 18 ppm AM18",0.033
same,"Average D0, optical density at 600 nm","Saccharomyces cerevisiae [1]; Multifruit juice, 36 ppm AM18",−0.009
same,"Average D1, optical density at 600 nm","Saccharomyces cerevisiae [1]; Multifruit juice, 36 ppm AM18",0.034
same,"Average D2, optical density at 600 nm","Saccharomyces cerevisiae [1]; Multifruit juice, 36 ppm AM18",0.008
same,"Average D3, optical density at 600 nm","Saccharomyces cerevisiae [1]; Multifruit juice, 36 ppm AM18",0.018
